Measured values published in patent US20260335299A1, “SUBSTITUTED OXOISOINDOLINYL PIPERIDINE-2,6-DIONE COMPOUND AS ANTICANCER AGENT” (BRISTOL-MYERS SQUIBB COMPANY, priority 2023, published 2026).
Where two headings read alike, the source gives them in different places.

Experiments:
[1] = molecular target: IKZF2 Helios (Homo sapiens, UniProt Q96SW2+Q9UKS7); experiment: Human Regulatory T Cell Degradation Assay (Helios); format: cell-based; parameters: Human CD4+ T cells were isolated from fresh healthy leukopaks; endogenous in cells; host or cells: FACS-sorted primary human regulatory T cells from healthy leukopaks; settings: human regulatory T cells, 20 h
Chain of IKZF2 Helios (Q9UKS7 whole entry): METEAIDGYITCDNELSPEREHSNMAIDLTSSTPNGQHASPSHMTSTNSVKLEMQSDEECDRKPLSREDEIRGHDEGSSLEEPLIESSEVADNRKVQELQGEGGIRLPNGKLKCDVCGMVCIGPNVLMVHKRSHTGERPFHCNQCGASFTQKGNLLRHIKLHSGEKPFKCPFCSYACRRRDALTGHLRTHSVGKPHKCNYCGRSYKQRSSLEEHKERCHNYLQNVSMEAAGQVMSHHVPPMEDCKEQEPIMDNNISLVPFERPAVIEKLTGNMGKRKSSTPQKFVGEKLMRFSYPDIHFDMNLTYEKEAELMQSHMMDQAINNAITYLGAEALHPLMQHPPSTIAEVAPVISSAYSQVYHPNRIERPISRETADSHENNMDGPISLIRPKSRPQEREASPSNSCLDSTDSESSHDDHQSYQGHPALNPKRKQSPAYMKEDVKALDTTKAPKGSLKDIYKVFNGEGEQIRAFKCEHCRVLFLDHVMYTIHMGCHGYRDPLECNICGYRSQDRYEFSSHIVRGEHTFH
Chain of IKZF2 Helios (Q96SW2 whole entry): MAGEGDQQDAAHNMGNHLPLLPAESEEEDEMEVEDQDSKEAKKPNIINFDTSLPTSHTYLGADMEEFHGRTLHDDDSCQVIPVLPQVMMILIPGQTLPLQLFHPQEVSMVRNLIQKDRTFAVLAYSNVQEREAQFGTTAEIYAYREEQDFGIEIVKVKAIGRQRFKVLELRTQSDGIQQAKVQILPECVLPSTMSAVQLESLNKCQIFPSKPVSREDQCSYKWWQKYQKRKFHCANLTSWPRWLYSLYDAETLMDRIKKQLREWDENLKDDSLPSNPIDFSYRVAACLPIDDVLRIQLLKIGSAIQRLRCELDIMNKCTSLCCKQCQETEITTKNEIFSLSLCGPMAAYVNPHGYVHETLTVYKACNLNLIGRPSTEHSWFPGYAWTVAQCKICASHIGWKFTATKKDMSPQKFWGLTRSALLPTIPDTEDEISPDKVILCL
Chain of IKZF2 Helios (Q16531 whole entry partner): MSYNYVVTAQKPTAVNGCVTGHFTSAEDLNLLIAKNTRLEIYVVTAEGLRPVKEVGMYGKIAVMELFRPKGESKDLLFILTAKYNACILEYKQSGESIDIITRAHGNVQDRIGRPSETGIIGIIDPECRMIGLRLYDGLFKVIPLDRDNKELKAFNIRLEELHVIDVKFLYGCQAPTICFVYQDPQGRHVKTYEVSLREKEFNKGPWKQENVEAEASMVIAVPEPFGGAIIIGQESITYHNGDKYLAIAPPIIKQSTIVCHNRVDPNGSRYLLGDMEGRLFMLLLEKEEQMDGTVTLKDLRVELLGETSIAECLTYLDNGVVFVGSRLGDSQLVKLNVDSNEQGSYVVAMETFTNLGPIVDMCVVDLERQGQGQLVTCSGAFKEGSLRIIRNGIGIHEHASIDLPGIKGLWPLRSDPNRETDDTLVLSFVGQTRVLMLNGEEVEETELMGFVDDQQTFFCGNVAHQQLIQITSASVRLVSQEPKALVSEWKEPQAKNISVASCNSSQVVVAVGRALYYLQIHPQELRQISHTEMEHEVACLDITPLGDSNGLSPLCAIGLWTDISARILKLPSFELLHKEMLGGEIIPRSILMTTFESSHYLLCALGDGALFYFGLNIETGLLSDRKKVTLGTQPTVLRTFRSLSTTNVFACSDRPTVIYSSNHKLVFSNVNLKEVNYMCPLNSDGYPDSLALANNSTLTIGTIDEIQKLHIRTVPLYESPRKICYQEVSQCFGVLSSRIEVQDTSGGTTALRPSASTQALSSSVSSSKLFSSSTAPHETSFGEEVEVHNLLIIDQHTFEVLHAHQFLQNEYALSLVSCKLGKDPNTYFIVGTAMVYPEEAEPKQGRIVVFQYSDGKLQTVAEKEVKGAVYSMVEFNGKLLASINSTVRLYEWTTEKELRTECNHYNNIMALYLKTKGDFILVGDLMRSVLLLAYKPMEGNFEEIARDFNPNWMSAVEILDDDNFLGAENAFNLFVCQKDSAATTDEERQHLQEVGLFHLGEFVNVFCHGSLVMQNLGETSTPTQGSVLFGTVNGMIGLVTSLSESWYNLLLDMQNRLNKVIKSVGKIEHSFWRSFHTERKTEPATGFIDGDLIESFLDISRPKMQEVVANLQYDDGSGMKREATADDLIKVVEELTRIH
Experimental: Cryopreserved human regulatory T cells were thawed in RPMI+10% FBS+20 ng/mL IL-2. After being spun at 1200 rpm for 5 mins, the cells were resuspended in RPMI+10% FBS+20 ng/ml and rested at 37° C. with 5% CO2 for 3 hours. The cells were then plated at 40,000 cells/well in 40 μL RPMI+10% FBS+20 ng/mL human IL-2 in a 384 well cell culture plate prior to using acoustic dispensing technology (ECHO 555) for adding compounds of interest. Cell cultures were incubated for 20 hours at 37° C. and 5% CO2. In order to facilitate analysis, cell cultures were spun down at 1200 rpm for 5 minutes and the supernatant was discarded using an EL406 plate washer. After washing three times with […] PBS, cell pellets were resuspended in 50 μL of […] viability staining solution (Life Technologies, Cat #L34975) and incubated for 30 minutes on ice protected from light. Cells were washed three times with 70 μL PBS+0.5% BSA using an EL406 plate washer. […] Stained cells were resuspended in 30 μL of flow cytometry staining buffer (PBS+0.5% BSA) and analyzed using an Intellicyt Ique Plus flow cytometer.
Table B-1 lists the maximum observed degradation of the IKZF1 protein and IKZF2 protein as measured in the Human Regulatory T Cell Degradation assay. […]

[2] = molecular target: T1, IKZF4 Eos (Homo sapiens, UniProt Q96SW2+Q9H2S9); experiment: Human Regulatory T Cell Reprogramming Assay (Eos); format: cell-based
T1 construct: Human CD4+ T cells were isolated from fresh healthy leukopaks; endogenous in cells; host or cells: FACS-sorted primary human regulatory T cells from healthy leukopaks
T1 sequence (Q9H2S9 whole entry): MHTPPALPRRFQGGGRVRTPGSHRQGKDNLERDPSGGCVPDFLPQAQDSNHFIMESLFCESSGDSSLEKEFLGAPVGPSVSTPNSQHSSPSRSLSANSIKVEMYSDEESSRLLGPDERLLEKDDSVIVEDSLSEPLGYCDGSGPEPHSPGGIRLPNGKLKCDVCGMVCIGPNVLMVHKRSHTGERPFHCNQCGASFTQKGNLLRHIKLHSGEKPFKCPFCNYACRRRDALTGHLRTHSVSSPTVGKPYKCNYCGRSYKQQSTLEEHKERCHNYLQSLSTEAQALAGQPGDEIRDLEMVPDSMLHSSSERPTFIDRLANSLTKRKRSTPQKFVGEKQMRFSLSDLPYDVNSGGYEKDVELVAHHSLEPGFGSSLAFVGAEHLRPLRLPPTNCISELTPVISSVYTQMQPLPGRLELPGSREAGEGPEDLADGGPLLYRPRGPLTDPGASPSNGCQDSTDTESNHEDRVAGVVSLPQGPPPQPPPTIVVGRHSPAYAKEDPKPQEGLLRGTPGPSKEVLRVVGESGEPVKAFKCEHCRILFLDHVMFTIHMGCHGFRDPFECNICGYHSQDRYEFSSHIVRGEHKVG
T1 sequence (Q96SW2 whole entry): as the sequence (Q96SW2 whole entry) above
T1 sequence (Q16531 whole entry partner): as the sequence (Q16531 whole entry partner) above
Experimental: Human CD4+ T cells were isolated from fresh healthy leukopaks (Stemcell Technologies) using the RosetteSep Human CD4+ T cell enrichment cocktail (Stemcell Technologies) and Ficoll density gradient centrifugation. Leukopaks were diluted with an equal volume of phosphate-buffered saline (PBS [Gibco]) supplemented with 2% fetal bovine serum (FBS, VWR Lifescience) and incubated with RosetteSep Human CD4^+ T cell enrichment cocktail for 20 minutes before layering on Ficoll-Paque Plus solution (GE Health Care). The cell-rich interface layer was harvested and washed twice with PBS supplemented with 2% FBS. Regulatory T cells were then isolated manually using the EasySep Human CD4^+CD1271WCD25^+ Regulatory T cell isolation kit (Stemcell Technologies) according to the manufacturer's instructions. Cells were rested overnight in Roswell Park Memorial Institute (RPMI) 1640 media (Gibco) supplemented with 10% FBS, Pen/Strep (Gibco), MEM-NEAA (Gibco), and sodium pyruvate (Gibco) in a humidified incubator (37° C., 5% CO2). Cells were then stained for CD4 (clone: RPA-T4, Biolegend), CD25 (clone: 2A3, BD Biosciences), and CD127 (clone: hIL-7R-M21, BD Biosciences). CD4+CD12710WCD25+ cells were sorted on a BD FACS Aria Fusion sorter to a purity of 95% or greater. Sorted cells were immediately used or cryopreserved for downstream assays.
Fresh or cryopreserved FACS-sorted CD4+CD127^lowCD25^+ Treg cells were cultured at 25,000-50,000 cells/well of 96-well round bottom plates in RPMI 1640 media (Gibco) supplemented with 10% FBS, Pen/Strep (Gibco), MEM-NEAA (Gibco), and sodium pyruvate (Gibco). Cells were stimulated with Treg Xpander beads (Thermo Fisher) at cells-to-beads ratio of 1:4 in the presence of 500 U/mL recombinant human IL-2 (Proleukin). Compounds were added at titrated doses and cells were incubated at 37° C., 5% CO2 for 12-13 days. Recombinant human IL-2 and compound were replenished every 2-3 days during the entire culture duration. On day 12 or 13, cells were restimulated with phorbol 12-myristate 13-acetate (PMA) and ionomycin in the presence of the protein transport inhibitors brefeldin A and monensin (eBioscience Cell Stimulation Cocktail plus protein transport inhibitors, 500×, Catalog number 00-4975-93) before proceeding with flow cytometry staining and analysis.
For flow cytometry staining, cells were washed twice with flow cytometry staining buffer (Thermo Fisher) and incubated in Human Tru-stain Fc block (Biolegend) for 10 minutes before adding eFluor780 viability dye (Thermo Fisher) and surface marker antibody cocktail for 30 minutes at 4° C. […] Data were analyzed using FlowJo version 10 and GraphPad Prism Software.
Table C-1 lists the maximum observed degradation of the IKZF2 protein and IKZF4 protein as measured in the Human Regulatory T Cell Reprogramming assay. […]

## Nc1nc(-c2ccc3c(c2F)CN(C2CCC(=O)NC2=O)C3=O)ccc1CN1CC(C2CCC(F)(F)CC2)C1 (stereo not drawn) [Example 1, 3-(5-(6-Amino-5-((3-(4,4-difluorocyclohexyl)azetidin-1-yl)methyl)pyridin-2-yl)-4-fluoro-1-oxoisoindolin-2-yl) piperidine-2,6-dione]
[1]; Regulatory T cell, read-out: IKZF2 Helios max % deg. observed
  Dmax: 96%
[1]; concentration reducing protein level by 50% compared to DMSO alone
  DC50: 0.1 nM
[2]; Regulatory T cell, human, text summary of Table C-1, read-out: decreased the level of IKZF4 (Eos)
  Dmax: ≥ 71%
[2]; Regulatory T cell, human Treg cells, stimulated, 12-13 days, read-out: IKZF4 Eos Maximum Observed Degradation
  Dmax: 71 to 72%
[2]; human Treg cells, stimulated, 12-13 days, concentration reducing protein level by 50% compared to DMSO alone
  DC50: 1.3 to 1.6 nM
[2]; summary table, Human T Regulatory Cell Reprogramming Assay (Table C-1), read-out: IKZF4 Eos max % deg. observed (Table E)
  Dmax: 71 to 72%
